This note sets out measurements from US7241795B2, “Synthesis and antimicrobial activity of novel dicationic “reversed amidines”” (The University of North Carolina at Chapel Hill, priority 2000, dated 2007).

Converted amounts (≈) assume the structure as drawn. Structures can show the parent of a compound that is named as a salt.

One data set deals with d(CGCGAATTCGCG)2. Briefly: DNA thermal melting (ΔTm). In kind it is binding. The note with it: oligo = d(CGCGAATTCGCG)2.
A further data set deals with poly dA•dT. Put plainly: DNA thermal melting (ΔTm). The format is binding.
In the next data set the test system is Candida albicans. Briefly: Antifungal broth macrodilution susceptibility testing (MIC/MFC), yeast. The format is cell-based. The conditions noted are these: for MFC / MIC: Candida albicans; for MFC: read-out: C. albicans MFC; for MIC: read-out: C. albicans MIC.
For a further data set, the system named is Aspergillus fumigatus. Briefly: Antifungal broth macrodilution susceptibility testing (MIC/MFC), mold. The format is cell-based. The note with it: Aspergillus fumigatus, strain 168.95; for MFC: read-out: Aspergillus fumigatus MFC; for MIC: read-out: Aspergillus fumigatus MIC.
For a further data set, the system named is M. tuberculosis H37Rv. Put plainly: Microplate Alamar Blue Assay (MABA) in BACTEC 12B medium. In kind it is cell-based, Mycobacterium tuberculosis. The conditions noted are these: for MIC / inhibition at 6.25 µg/mL: Mycobacterium tuberculosis, H37RV; for MIC: read-out: MTb MIC; for inhibition at 6.25 µg/mL: % Inhibition at 6.25 μg/ml, read-out: MTb % Inh. Background: The colour change of resazurin is a common sign of viable cells or microbes.

[1] abbreviates: reference strain C. albicans A39.
The mark [2] stands for this setting: lowest concentration effecting ≧90% reduction of fluorescence.

Molecule `Cc1ccc(N=Nc2ccc(-c3ccc(-c4ccc(N=Nc5ccc(C)cn5)cc4C)o3)c(C)c2)nc1` (as salt: hydrochloride) [Compound 6j, 2,5-Bis[2-methyl-4-(5-methyl-2-pyridylimino)aminophenyl]furan] came in with a melting point of 156 to 158 °C.

For the molecule `Cl.Cl.N=C(Nc1ccc(-c2ccc(-c3ccc(NC(=N)c4ccccc4)cc3)o2)cc1)c1ccccc1` [Compound 6b, 2,5-Bis[4-(benzimidoylamino)phenyl]furan Dihydrochloride], in the data set on d(CGCGAATTCGCG)2, the “DNA Affinities ΔTm (oligo)” value is on record as 15.0. Moreover, the “DNA Affinities ΔTm (AT)” value in the data set with poly dA•dT was found to be 28.6. Moreover, in the data set on Candida albicans (setting [1]), the MFC was determined as 50 µg/mL and the minimal inhibitory concentration (MIC) stood at 25 µg/mL.

For `COc1cc(NC(=N)N)ccc1-c1ccc(-c2ccc(NC(=N)N)cc2OC)o1.Cl.Cl` [Compound 5c, 2,5-Bis(4-guanidino-2-methoxyphenyl)furan dihydrochloride], in the data set on d(CGCGAATTCGCG)2, the “DNA Affinities ΔTm (oligo)” value is 2.8. For the same molecule, in the data set on poly dA•dT, the “DNA Affinities ΔTm (AT)” value amounted to 15.2. Also, the MFC in the data set on Candida albicans (setting [1]) and in the data set on Aspergillus fumigatus was 100 µg/mL each time. For the same molecule, the MIC with Candida albicans (setting [1]) stood at 10 µg/mL; with Aspergillus fumigatus it was 100 µg/mL; in the data set with M. tuberculosis H37Rv (setting [2]), 16 µg/mL.

`Br.Br.CC(=N)Nc1ccc(-c2ccc(-c3ccc(NC(C)=N)cc3)o2)cc1` [Compound 6e, 2,5-Bis[4-(acetimidoyl)aminophenyl]furan Dihydrobromide]: the melting point is 307 to 309.5 °C (dec.). Also, the “DNA Affinities ΔTm (oligo)” value in the data set on d(CGCGAATTCGCG)2 came out at 6.0. Further, the “DNA Affinities ΔTm (AT)” value in the data set on poly dA•dT is listed as 15.9. Further, in the data set with Candida albicans (setting [1]), the MIC was above 100 µg/mL. For the same molecule, in the data set with Aspergillus fumigatus, the minimal fungicidal concentration (MFC) is above 100 µg/mL and the MIC was found to be 100 µg/mL. The inhibition at 6.25 µg/mL in the data set with M. tuberculosis H37Rv is 0%.

Take `N=C(N)c1ccc(-c2ccc(-c3ccc(C(=N)N)cc3)o2)cc1` [2,5-bis [4-amidinophenyl]furan, reference compound]: in the data set with d(CGCGAATTCGCG)2, the “DNA Affinities ΔTm (oligo)” value was found to be 11.7. In addition, the “DNA Affinities ΔTm (AT)” value in the data set on poly dA•dT stood at 25.

Turning to `Cc1cc(NC(=N)N)cc(C)c1-c1ccc(-c2c(C)cc(NC(=N)N)cc2C)o1.Cl.Cl` [Compound 5f, 2,5-Bis(4-guanidino-2,6-dimethylphenyl)furan dihydrochloride], the “DNA Affinities ΔTm (oligo)” value with d(CGCGAATTCGCG)2 is 1.4. In addition, in the data set on poly dA•dT, the “DNA Affinities ΔTm (AT)” value is reported as 2.7.

`Clc1cc(N=Nc2ccccn2)ccc1-c1ccc(-c2ccc(N=Nc3ccccn3)cc2Cl)o1` (as salt: hydrochloride) [Compound 6l, 2,5-Bis[2-chloro-4-(2-pyridylimino)aminophenyl]furan] returned a melting point of 189 to 190 °C.

With `N=C(N)Nc1ccc(-c2ccc(-c3ccc(NC(=N)N)cc3)s2)cc1` [DB 686], in the data set on Candida albicans (setting [1]), the “C. albicans MFC” value amounted to 4.17 µg/mL and the “C. albicans MIC” value is 4.17 µg/mL. Also, the “MTb MIC” value in the data set with M. tuberculosis H37Rv (H37Rv, lowest concentration effecting ≧90% reduction of fluorescence) was below 1 µg/mL.

`c1cc(-c2ccc(-c3ccc(N=NC4CCCCC4)cc3)o2)ccc1N=NC1CCCCC1` [Compound 6d, 2,5-Bis[4-(cyclohexylimino)aminophenyl]furan]: the “DNA Affinities ΔTm (oligo)” value in the data set with d(CGCGAATTCGCG)2 is 12.8. Moreover, the “DNA Affinities ΔTm (AT)” value with poly dA•dT amounted to 26.7. The figures for the MIC with Candida albicans (setting [1]), in the data set with Aspergillus fumigatus and with M. tuberculosis H37Rv (setting [2]) were above 100 µg/mL, 100 µg/mL (≈ 227 µM) and at most 6.25 µg/mL, respectively. In the data set with Aspergillus fumigatus, the MFC is above 100 µg/mL. In addition, the “activity against M. tuberculosis, in words” value in the data set with M. tuberculosis H37Rv is listed as “some activity”.

Turning to `N=C(Nc1ccc(-c2ccc(-c3ccc(NC(=N)c4ccccc4)cc3)s2)cc1)c1ccccc1` (hydrate or solvate) [DB 653, 2,5-Bis[4-(benzimidoyl)aminophenyl]thiophene], the melting point is 284 to 286 °C (dec.).

For the molecule `COc1cc(N=Nc2ccccn2)ccc1-c1ccc(-c2ccc(N=Nc3ccccn3)cc2OC)o1` (as salt: hydrochloride) [Compound 6k, 2,5-Bis[2-methoxy-4-(2-pyridylimino)aminophenyl]furan], the melting point was in the range of 196 to 197 °C.

Consider `Br.Br.CC(=N)Nc1ccc(-c2ccc(-c3ccc(NC(C)=N)cc3C)o2)c(C)c1` [Compound 6f, 2,5-Bis [4-(acetimidoyl)amino-2-methylphenyl]furan Dihydrobromide], for which the melting point was 282.5 to 284 °C (dec.). The “DNA Affinities ΔTm (oligo)” value in the data set on d(CGCGAATTCGCG)2 is recorded as 2.4. Besides, the “DNA Affinities ΔTm (AT)” value with poly dA•dT was 14.5. For the same molecule, in the data set on Candida albicans (setting [1]), the MIC is above 100 µg/mL. In addition, the MIC with Aspergillus fumigatus was above 100 µg/mL. For the same molecule, the inhibition at 6.25 µg/mL in the data set on M. tuberculosis H37Rv was found to be 18%.

Regarding `Cl.Cl.N=C(N)Nc1ccc(-c2ccc(-c3ccc(NC(=N)N)cc3Cl)o2)c(Cl)c1` [Compound 5d, 2,5-Bis(2-chloro-4-guanidinophenyl)furan dihydrochloride], the melting point was 300 to 304 °C (dec.). The “DNA Affinities ΔTm (oligo)” value in the data set with d(CGCGAATTCGCG)2 was 4.7. Besides, in the data set on poly dA•dT, the “DNA Affinities ΔTm (AT)” value was found to be 26.1. In the data set with Candida albicans (setting [1]), the MFC is 100 µg/mL and the MIC worked out at 10 µg/mL. For the same molecule, in the data set with Aspergillus fumigatus, the MFC was 100 µg/mL and the MIC is 100 µg/mL. Further, the MIC in the data set with M. tuberculosis H37Rv (setting [2]) was 4 µg/mL.

On to `N=C(Nc1ccc(-c2ccc(-c3ccc(NC(=N)c4ccccc4)cc3)s2)cc1)c1ccccc1` [DB 653, 2,5-Bis[4-(benzimidoyl)aminophenyl]thiophene], for which, in the data set on d(CGCGAATTCGCG)2, the “DNA Affinities ΔTm (oligo)” value was 12.8. Besides, the “DNA Affinities ΔTm (AT)” value with poly dA•dT worked out at 20.2. The MIC in the data set on Candida albicans (setting [1]) and with Aspergillus fumigatus was above 100 µg/mL throughout.

For the molecule `Cl.Cl.N=C(N)Nc1ccc(-c2ccc(-c3ccc(NC(=N)N)cc3)o2)cc1` [Compound 5a, 2,5-Bis(4-guanidinophenyl)furan dihydrochloride], the “DNA Affinities ΔTm (oligo)” value with d(CGCGAATTCGCG)2 was found to be 10.8. Also, the “DNA Affinities ΔTm (AT)” value in the data set on poly dA•dT was 21.6. Also, in the data set on Candida albicans, the “activity against C. albicans, in words” value is recorded as “fungicidal”. In the data set with Candida albicans (setting [1]), the MFC stood at 25 µg/mL. In addition, in the data set with Aspergillus fumigatus, the MFC is above 100 µg/mL and the MIC was 100 µg/mL.

`Cc1ccc(C(=N)Nc2ccc(-c3ccc(-c4ccc(NC(=N)c5ccc(C)cc5)cc4)o3)cc2)cc1.Cl.Cl` [Compound 6c, 2,5-Bis [4-[(4-methylbenzimidoyl)amino]phenyl]furan Dihydrochloride]: the melting point is 348 to 350.5 °C. Besides, the “DNA Affinities ΔTm (oligo)” value in the data set on d(CGCGAATTCGCG)2 was determined as 15.4. The “DNA Affinities ΔTm (AT)” value in the data set with poly dA•dT is recorded as above 28. For the same molecule, in the data set with Candida albicans (setting [1]), the MIC is above 100 µg/mL. Besides, the MIC in the data set on M. tuberculosis H37Rv (setting [2]) was at most 6.25 µg/mL.

For the molecule `Cc1cc(NC(=N)N)ccc1-c1ccc(-c2ccc(NC(=N)N)cc2C)o1.Cl.Cl` [Compound 5b, 2,5-Bis(4-guanidino-2-methylphenyl)furan dihydrochloride], the melting point was 265 to 271 °C (dec.). The “DNA Affinities ΔTm (oligo)” value in the data set on d(CGCGAATTCGCG)2 is on record as 6.9. Also, the “DNA Affinities ΔTm (AT)” value in the data set on poly dA•dT was 17.8. Also, the “activity against C. albicans, in words” value in the data set with Candida albicans is “fungicidal”. For the same molecule, in the data set with Candida albicans (setting [1]), the MFC turned out to be 2.08 µg/mL and the MIC lay within 1 to 3 µg/mL. In the data set with Aspergillus fumigatus, the MFC amounted to 33.4 µg/mL and the MIC came out at 33.4 µg/mL. The MIC in the data set on M. tuberculosis H37Rv (setting [2]) lay in the range of 1 to 3 µg/mL.

On to `Cc1cc(N=Nc2ccc3ccccc3n2)ccc1-c1ccc(-c2ccc(N=Nc3ccc4ccccc4n3)cc2C)o1` (as salt: hydrochloride) [Compound 6i, 2,5-Bis[2-methyl-4-(2-quinolylimino)aminophenyl]furan], for which the melting point was in the range of 168 to 169 °C.

Consider `Cc1cc(NC(=N)c2ccccc2)ccc1-c1ccc(-c2ccc(NC(=N)c3ccccc3)cc2C)o1` [Compound 6g, 2,5-Bis[4-(benzimidoyl)amino-2-methylphenyl]furan], for which the “DNA Affinities ΔTm (oligo)” value in the data set on d(CGCGAATTCGCG)2 came out at 7.8. Also, in the data set on poly dA•dT, the “DNA Affinities ΔTm (AT)” value is given as 24.9. For the same molecule, in the data set on Candida albicans (setting [1]), the MFC stood at 6.25 µg/mL (≈ 12.9 µM) and the MIC was found to be 3.12 µg/mL (≈ 6.44 µM).

For `OC(Cn1cncn1)(Cn1cncn1)c1ccc(F)cc1F` [Fluconazole, reference compound], the “activity against C. albicans, in words” value in the data set with Candida albicans was “fungistatic”.

On to `Cc1cc(N=Nc2ccccn2)cc(C)c1-c1ccc(-c2c(C)cc(N=Nc3ccccn3)cc2C)o1` [Compound 6m, 2,5-Bis[2,6-dimethyl-4-(2-pyridylimino)aminophenyl]furan], for which the “DNA Affinities ΔTm (oligo)” value with d(CGCGAATTCGCG)2 is on record as 1.2. Moreover, the “DNA Affinities ΔTm (AT)” value in the data set with poly dA•dT was determined as 5.7. For the same molecule, the MFC with Candida albicans (setting [1]) and in the data set with Aspergillus fumigatus was above 100 µg/mL throughout. In addition, the MIC with Candida albicans (setting [1]) and with Aspergillus fumigatus was 10 µg/mL (≈ 20.6 µM) in each case.

As for `c1ccc(N=Nc2ccc(-c3ccc(-c4ccc(N=Nc5ccccn5)cc4)o3)cc2)nc1` (as salt: hydrochloride) (hydrate or solvate) [Compound 6a, 2,5-Bis[4-(2-pyridylimino)aminophenyl]furan], the melting point lay within 221 to 223 °C.

In the case of `Cl.Cl.N=C(N)Nc1ccc(-c2ccc(-c3ccc(NC(=N)N)cc3C(F)(F)F)o2)c(C(F)(F)F)c1` [Compound 5e, 2,5-Bis (4-guanidino-2-trifluoromethylphenyl) furan dihydrochloride], the “DNA Affinities ΔTm (AT)” value in the data set on poly dA•dT is listed as 5.9. Besides, the figures for the MFC with Candida albicans (setting [1]) and in the data set with Aspergillus fumigatus were 10 µg/mL and 100 µg/mL, respectively. The MIC with Candida albicans (setting [1]) was 10 µg/mL; in the data set with Aspergillus fumigatus, 100 µg/mL; in the data set on M. tuberculosis H37Rv (setting [2]), 8 µg/mL.

What is called melting point is the temperature, or range, at which the solid turns liquid. For orientation: MFC means the smallest concentration meeting the test's criterion for killing the fungus. One may read the MIC as the least concentration at which growth counts as inhibited.
